Laboratory results as given in US20260000657A1, “ANTI-ANGIOGENIC THERAPY AS TREATMENT FOR BENIGN UTERINE DISORDERS” (STICHTING AMSTERDAM UMC, priority 2022, published 2026).

What was measured:
[1] = system: tamoxifen-induced adenomyosis in CD-1 mice; assay: Oral axitinib treatment in tamoxifen-induced adenomyosis mouse model; type: in vivo
Procedure: After validation of the model, this model was used to test treatment with anti-vascular endothelial growth factor receptor 2 (VEGFR-2) tyrosine kinase inhibitor axitinib (A-1107; LC Laboratories). To induce adenomyosis, 108 mice received neonatal tamoxifen treatment and were randomly allocated to receive treatment or placebo. On day 42, anti-angiogenesis treatment commenced by oral axitinib treatment or placebo. Axitinib was dissolved in 0.5% sodium carboxymethylcellulose (CMC) at a dose of 25 mg/kg body weight (dose I) or at a dose of 3 mg/kg (dose II). All animals received treatment by daily oral gavage at 5 μl/g bodyweight with axitinib (dose I/II) or placebo (CMC) for a time period of three weeks. During this period, all animals had daily animal welfare observations, and were weighed at a minimum of three times per week. The experimental groups are depicted in FIG. 1.
The uteri were cut in half, one horn (right/left horn randomized) was fixed in 4% formaldehyde at room temperature for 48 hours.
Uterine tissue was embedded in paraffin and sliced into transverse oriented sections of 5 μm, with three sections of one uterine horn on one microscope slide. […] Paraffin-embedded sections were dewaxed in xylene, rehydrated in 100%, 96%, and 70% ethanol, and washed in PBS (pH 7.4). […] After washing in PBS, aspecific binding was blocked by 3% BSA/PBS for one hour. After adding primary antibodies diluted in 0.5% BSA/PBS, sections were incubated overnight at 4° C. […] After washing with PBS, horseradish peroxidase (HRP)—streptavidin (strep) was added (cat. no. ab6734; 1:200; Dako Cytomation) diluted in 0.5% BSA/PBS, for thirty minutes. The sections were then washed in PBS, afterwards 3,3′-Diaminobenzidine (DAB) was added (60 μl DAB; 1 μl 30% H2O2; 1 mL PBS), for eight minutes.

[2] = system: tamoxifen-induced adenomyosis in a murine model; assay: Adenomyosis severity index (grade x affected surface area) in tamoxifen-induced adenomyosis murine model; type: in vivo, mice; conditions: dose II 3 mg/kg, post hoc p<0.05
Excerpt: The adenomyosis severity index in tamoxifen-induced adenomyosis in a murine model has been determined based on the abovementioned results of grade of adenomyosis and adenomyosis-affected surface area. Specifically, the grade of adenomyosis (determined on H&E slides as described above) was multiplied by the adenomyosis-affected surface area (determined on vimentin-stained slides). The adenomyosis severity index is the average of all sections analyzed per uterine horn. The adenomyosis severity index was determined for placebo group (CMC-treated mice) and two axitinib-treated groups (dose II—AX3: axitinib 3 mg/kg; dose I—AX25: axitinib 25 mg/kg).

[3] = system: angiogenesis-related genes (VEGF-R1, VEGF-R2, VEGF-R3, VEGF-A, VEGF-B, CD31) in mouse uteri; assay: Real-time quantitative PCR uterine gene expression profile after axitinib; type: in vivo, mice; conditions: RT-PCR
Procedure: To study the efficacy of axitinib treatment at the molecular level, the expression levels of vascular marker CD31 and angiogenic growth factors VEGF-A, VEGF-B, VEGF receptor R1 (VEGF-R1), VEGF-R2, VEGF-R3, placental growth factor PlGF, and collagen were measured. Real-time quantitative PCR was performed in a random selection of uterine specimens exposed to axitinib (dose II, n=7; dose I, n=6) or placebo (CMC, n=7). The expression of each gene was normalized to the household gene cyclophilin A.

[4] = system: tamoxifen-induced mice model; conditions: from week 16 of age; cited from earlier work
[5] = system: uterus of mice with tamoxifen-induced adenomyosis
Excerpt: Sunitinib is another angiogenesis inhibitor and a highly-fluorescent molecule, therefore it will be used as a model drug to microscopically assess uptake and distribution in uterine tissue after termination.
Intra-uterine delivery of a gel containing slow-release Sunitinib in low dose will also be tested as an alternative treatment for oral Axinitib in mice with tamoxifen-induced adenomyosis.

[6] = system: uterine adenomyosis in SHN mice; conditions: cited from earlier work
[7] = system: CD-1 mice; assay: Validation of tamoxifen-induced mouse adenomyosis model
[8] = system: human adenomyosis lesions xenografted in mice; conditions: administered 14 days after xenografting; cited from earlier work
[9] = dose I 25 mg/kg daily oral gavage three weeks
[10] = dose I 25 mg/kg daily oral gavage three weeks, N = 34
[11] = dose II 3 mg/kg daily oral gavage three weeks
[12] = dose II 3 mg/kg daily oral gavage three weeks, N = 34
[13] = tamoxifen 1 mg/kg oral day 2-5 after birth, six weeks, n = 6
[14] = tamoxifen 1 mg/kg, six weeks, n = 6

With `CNC(=O)c1ccccc1Sc1ccc2c(/C=C/c3ccccn3)n[nH]c2c1` [Axitinib, axitinib] the “No signs of adenomyosis (% of mice)” value [1, 9] was 11,8%, the “Presented with adenomyosis (% of mice)” value [1, 9] was 88,2% and the “Adenomyosis No (number of mice)” value [1, 10] was 4. The “Adenomyosis Yes (number of mice)” value [1, 10] was 30, the “Weight end treatment, Mean” value [1, 10] was 29.9 g and the “Ectopic glands, median” value ([1]; dose I 25 mg/kg, N = 34) was 3.0. The “Grade 0 (% of mice)” value ([1]; dose I 25 mg/kg, N = 34) was “(14.7%)”, the “Grade 0 (number of mice)” value ([1]; dose I 25 mg/kg, N = 34) was 5 and the “Grade 1 (% of mice)” value ([1]; dose I 25 mg/kg, N = 34) was “(29.4%)”. The “Grade 1 (number of mice)” value ([1]; dose I 25 mg/kg, N = 34) was 10, the “Grade 2 (% of mice)” value ([1]; dose I 25 mg/kg, N = 34) was “(50.0%)” and the “Grade 2 (number of mice)” value ([1]; dose I 25 mg/kg, N = 34) was 17. For the same compound, the “Grade 3 (% of mice)” value ([1]; dose I 25 mg/kg, N = 34) was “(5.9%)”, the “Grade 3 (number of mice)” value ([1]; dose I 25 mg/kg, N = 34) was 2 and the “Ratio thickest myometrium/transverse uterine diameter, median” value ([1]; dose I 25 mg/kg, N = 34) was 0.18. The “Ratio thickest myometrium/uterine wall, median” value ([1]; dose I 25 mg/kg, N = 34) was 0.49, the “Ratio thinnest myometrium/uterine wall, median” value ([1]; dose I 25 mg/kg, N = 34) was 0.21 and the “Ratio thinnest/thickest myometrium, median” value ([1]; dose I 25 mg/kg, N = 34) was 0.26. The “Spread Diffuse (number of mice)” value ([1]; dose I 25 mg/kg, N = 34) was 18, the “Spread Focal (number of mice)” value ([1]; dose I 25 mg/kg, N = 34) was 8 and the “Spread None (% of mice)” value ([1]; dose I 25 mg/kg, N = 34) was “(14.7%)”. For the same compound, the “Spread None (number of mice)” value ([1]; dose I 25 mg/kg, N = 34) was 5, the “Adenomyosis No (% of mice)” value ([1]; dose I + II pooled, N = 68) was “(14.9%)” and the “Adenomyosis No (number of mice)” value ([1]; dose I + II pooled, N = 68) was 10. The “Adenomyosis Yes (% of mice)” value ([1]; dose I + II pooled, N = 68) was “(85.1%)”, the “Adenomyosis Yes (number of mice)” value ([1]; dose I + II pooled, N = 68) was 57 and the “Ectopic areas, Median” value ([1]; dose I + II pooled, N = 68) was 1.3. For the same compound, the “Ectopic glands, median” value ([1]; dose I + II pooled, N = 68) was 2.8, the “Grade 0/1 (% of mice)” value ([1]; dose I + II pooled, N = 68) was “(40.3%)” and the “Grade 0/1 (number of mice)” value ([1]; dose I + II pooled, N = 68) was 27. The “Grade 2/3 (% of mice)” value ([1]; dose I + II pooled, N = 68) was “(59.7%)”, the “Grade 2/3 (number of mice)” value ([1]; dose I + II pooled, N = 68) was 40 and the “Spread Diffuse (% of mice)” value ([1]; dose I + II pooled, N = 68) was “(54.0%)”. The “Spread Diffuse (number of mice)” value ([1]; dose I + II pooled, N = 68) was 34, the “Spread Focal (% of mice)” value ([1]; dose I + II pooled, N = 68) was “(30.2%)” and the “Spread Focal (number of mice)” value ([1]; dose I + II pooled, N = 68) was 19. The “Spread None (% of mice)” value ([1]; dose I + II pooled, N = 68) was “(15.9%)”, the “Spread None (number of mice)” value ([1]; dose I + II pooled, N = 68) was 10 and the “Weight end treatment, Mean” value ([1]; dose I + II pooled, N = 68) was 28.7 g. The “No signs of adenomyosis (% of mice)” value [1, 11] was 14,7%, the “Presented with adenomyosis (% of mice)” value [1, 11] was 82,4% and the “Adenomyosis No (number of mice)” value [1, 12] was 5. For the same compound, the “Adenomyosis Yes (number of mice)” value [1, 12] was 28, the “Weight end treatment, Mean” value [1, 12] was 28.4 g and the “Ectopic glands, median” value ([1]; dose II 3 mg/kg, N = 34) was 2.7. The “Grade 0 (% of mice)” value ([1]; dose II 3 mg/kg, N = 34) was “(15.2%)”, the “Grade 0 (number of mice)” value ([1]; dose II 3 mg/kg, N = 34) was 5 and the “Grade 1 (% of mice)” value ([1]; dose II 3 mg/kg, N = 34) was “(21.2%)”. For the same compound, the “Grade 1 (number of mice)” value ([1]; dose II 3 mg/kg, N = 34) was 7, the “Grade 2 (% of mice)” value ([1]; dose II 3 mg/kg, N = 34) was “(57.6%)” and the “Grade 2 (number of mice)” value ([1]; dose II 3 mg/kg, N = 34) was 19. For the same compound, the “Grade 3 (% of mice)” value ([1]; dose II 3 mg/kg, N = 34) was “(6.1%)”, the “Grade 3 (number of mice)” value ([1]; dose II 3 mg/kg, N = 34) was 2 and the “Ratio thickest myometrium/transverse uterine diameter, median” value ([1]; dose II 3 mg/kg, N = 34) was 0.18. For the same compound, the “Ratio thickest myometrium/uterine wall, median” value ([1]; dose II 3 mg/kg, N = 34) was 0.54, the “Ratio thinnest myometrium/uterine wall, median” value ([1]; dose II 3 mg/kg, N = 34) was 0.19 and the “Ratio thinnest/thickest myometrium, median” value ([1]; dose II 3 mg/kg, N = 34) was 0.23. The “Spread Diffuse (number of mice)” value ([1]; dose II 3 mg/kg, N = 34) was 16.4, the “Spread Focal (number of mice)” value ([1]; dose II 3 mg/kg, N = 34) was 11 and the “Spread None (% of mice)” value ([1]; dose II 3 mg/kg, N = 34) was “(15.2%)”. For the same compound, the “Spread None (number of mice)” value ([1]; dose II 3 mg/kg, N = 34) was 5, the “Odds ratio, incidence of grade 0/1 vs grade 2/3 adenomyosis, axitinib vs CMC-only” value ([1]; pooled dose I + II vs placebo, p=0,048) was 1.33 and the “Reduction of adenomyosis severity index compared to placebo-treated mice” value [2] was 48%. The “Down-regulation of all VEGF receptors (1-3), as well as VEGF-A and VEGF” value ([3]; dose I axitinib, p<0.05) was “more than 60%”, the “Decrease of expression of endothelial cell marker CD31” value ([3]; dose I axitinib, p=0.06) was 85% and the “Down-regulation of VEGF-R1 expression” value ([3]; dose II axitinib, p=0.003) was 63%. The “Decrease of expression of endothelial cell marker CD31” value ([3]; dose II axitinib, p=0.04) was 85%.

In the case of `O=C(O)/C=C/c1ccc(Cn2ccnc2)cc1` [Ozagrel], the Myometrial infiltration [4] is given as “suppressed myometrial infiltration”.

With `CCN(CC)CCNC(=O)c1c(C)[nH]c(/C=C2\C(=O)Nc3ccc(F)cc32)c1C` [Sunitinib] the “Uptake in uterine tissue after intra-uterine injection” value ([5]; 1% and 0.1% of systemic dose, 4 h and 24 h after injection) was “uptake throughout the myometrium” and the “Toxic effects when delivered locally” value ([5]; mouse, in vivo) was “without any toxic effects”.

In the case of `CO[C@@H]1[C@H](OC(=O)NC(=O)CCl)CC[C@]2(CO2)[C@H]1[C@@]1(C)O[C@@H]1CC=C(C)C` [TNP-470], the “Development of signs of uterine adenomyosis” value ([6]; treatment from one day after pituitary grafting until week 13) is listed as “did not develop signs of uterine adenomyosis” and the “Mean surface area of blood vessels in the endometrium, relative to control group” value ([6]; treatment until week 13) is listed as 60.5%.

With `CC/C(=C(\c1ccccc1)c1ccc(OCCN(C)C)cc1)c1ccccc1` [Tamoxifen, tamoxifen] the “Fibrosis surrounding the adenomyosis affected areas” value ([7]; H&E and PTAH staining, tamoxifen-treated group) was “No signs of fibrosis”, the “Weight, Median” value ([7]; tamoxifen 1 mg/kg oral day 2-5 after birth, sacrificed after six weeks, n = 6) was 25.2 and the “Adenomyosis No (% of mice)” value [7, 13] was “(0%)”. For the same compound, the “Adenomyosis No (number of mice)” value [7, 13] was 0, the “Adenomyosis Yes (% of mice)” value [7, 13] was “(100%)” and the “Adenomyosis Yes (number of mice)” value [7, 13] was 6. For the same compound, the “Adenomyosis Yes (% of mice)” value ([7]; tamoxifen 1 mg/kg oral day 2-5 after birth, six weeks, n = 6, listed as tamoxifen) was 100%, the “Ectopic glands, median” value [7, 14] was 7.5 and the “Grade 0 (% of mice)” value [7, 14] was “(0%)”. For the same compound, the “Grade 0 (number of mice)” value [7, 14] was 0, the “Grade 1 (% of mice)” value [7, 14] was “(0%)” and the “Grade 1 (number of mice)” value [7, 14] was 0. For the same compound, the “Grade 2 (% of mice)” value [7, 14] was “(100%)”, the “Grade 2 (number of mice)” value [7, 14] was 6 and the “Grade 3 (% of mice)” value [7, 14] was “(0%)”. The “Grade 3 (number of mice)” value [7, 14] was 0, the “Grade of adenomyosis developed by all mice” value [7, 14] was “grade 2” and the “Microvessel density, median, Ectopic endometrium” value [7, 14] was 4.8. The “Microvessel density, median, Endometrium” value [7, 14] was 5.9, the “Microvessel density, median, Myometrium” value [7, 14] was 3.0 and the “Ratio thickest myometrium/thickest uterine wall (α-SMA)” value [7, 14] was 0.43. The “Ratio thinnest myometrium/thickest myometrium (α-SMA)” value [7, 14] was 0.19, the “Ratio thinnest myometrium/thinnest uterine wall (α-SMA)” value [7, 14] was 0.18 and the “Spread Diffuse (% of mice)” value [7, 14] was “(66.7%)”. For the same compound, the “Spread Diffuse (number of mice)” value [7, 14] was 4, the “Spread Focal (% of mice)” value [7, 14] was “(33.3%)” and the “Spread Focal (number of mice)” value [7, 14] was 2.

In the case of bevacizumab, the “MVD and the expression of VEGF” value [8] is listed as “decreased”.
